{"source": "patent US20080261955A1", "about": "“Use of Pharmaceutical Compositions of Lofepramine for the Treatment of Adhd, Cfs, Fm and Depression” (priority 2004, published 2008)", "key": {"[1]": {"test_system": "ECG interval", "conditions": "rats infused with the antidepressant; cited from earlier work"}, "[2]": {"test_system": "ADHD", "conditions": "cited from earlier work"}, "[3]": {"test_system": "ADHD", "assay": "Two large well-controlled studies of atomoxetine, CAARS scores", "assay_type": "in vivo, human", "conditions": "overall", "from_the_text": "In the second study, these improvements were 30.1% vs. 19.6%, respectively. Overall these two studies have indicated a placebo response of about 20% and difference between active and placebo of about 10%. Moreover, atomoxetine is not a stimulant, a point that provides an effective marketing tool for this drug."}, "[4]": {"conditions": "fatal poisoning / overdose; cited from earlier work"}, "[5]": {"test_system": "ADD (as defined in DSM III)", "conditions": "31 patients treated with 4.6 mg/kg, children and adolescents; cited from earlier work"}, "[6]": {"conditions": "desipramine treatment; cited from earlier work"}, "[7]": {"test_system": "hyperactivity (ADHD)", "conditions": "doses as low as 75 mg/day; cited from earlier work"}, "[8]": {"test_system": "ADHD", "assay": "Example 2: lofepramine versus placebo in adult patients with ADHD (CAARS)", "assay_type": "in vivo, human", "conditions": "20 adult patients, oral 140 to 280 mg/day, 3 months", "procedure": "A study was carried out to access the efficacy of lofepramine compared to placebo in 20 adult patients with ADHD at a single study centre. Active treatment was for 3 months. Patients with DSM-IV diagnosis of ADHD were recruited. Patients were assessed using the patient-rated Connors Adult ADH Rating Scales (CAARS). Initially, there was a single blind placebo period between day 0 and week 3, and patients who responded to placebo were withdrawn. Oral administration of lofepramine (140 mg/day) was commenced from week 3 onwards. Patients showing little response to this dose and tolerable side effects were titrated upwards to 210 mg/day and then to 280 mg/day."}, "[9]": {"test_system": "DSM-IV ADHD", "assay": "Example 1: case reports of ADHD patients on lofepramine", "assay_type": "in vivo, human", "conditions": "for behaviour: child; for general behaviour and concentration: person", "procedure": "Patient is a person with a diagnosis of DSM-IV ADHD. Their education was severely impacted by an inability to sustain attention for any length of time and they were also very disruptive in class. Their inability to sustain attention was causing difficulty at work. They were referred by their primary care physician. They were commenced on lofepramine 70 mg twice daily. […] The dose of lofepramine was increased to 70 mg three times daily. […] Within 48 hours their concentration deteriorated and they were once again in trouble at work. A week later the medication was recommenced and they have now remained well for approximately 4 months. They are performing effectively at work and their parents are happy with the situation. A child had been on methylphenidate for 2 years which was prescribed for ADHD characterised by poor concentration and impulsive behaviour. They stopped taking the medication and deteriorated. When they attended the clinic they were commenced on lofepramine 70 mg twice daily. […] This has been sustained for 4 months."}, "[10]": {"assay": "Sedation", "conditions": "in vivo"}, "[11]": {"test_system": "Hypothalamic-Pituitary-Adrenal axis", "assay": "HPA axis activity in CFS", "assay_type": "in vivo, human", "conditions": "along with symptomatic relief", "from_the_text": "While not being bound by any one mechanisms of action, previous work by one of the co-inventors here, has supported the evidence that there is Hypothalamic-Pituitary-Adrenal axis under activity in CFS patients. (Scott […] and […]; Acta Psychiatr Scand 1998 June 97: 450-7)."}, "[12]": {"test_system": "Chronic Fatigue Syndrome", "assay": "Example 3: lofepramine in Chronic Fatigue Syndrome patients, cross-over design", "assay_type": "in vivo, human", "conditions": "44 patients, doses up to 210 mg/day over 26 weeks", "procedure": "Forty-four patients meeting the criteria for Chronic Fatigue Syndrome were recruited in a cross-over design. […] Patients were administered lofepramine at doses up to 210 mg/day over the 26 weeks of the study. Patients were assessed using the FibroFatigue Scale (interview scale) and the CDR battery of cognitive tests (computer based assessment of cognition). Other assessments included HADS and Clinical Global Improvement (CGI). Four CDR assessments and 9 Fibrofatigue assessments were carried out."}, "[13]": {"test_system": "noradrenaline reuptake versus serotonin (5HT) reuptake", "assay": "NA:5HT relative potencies based on Ki data (Bolden-Watson and Richelson)", "assay_type": "biochemical", "conditions": "basis not stated", "from_the_text": "The selectivity a drug for various receptors may be compared by use of comparative Ki's and not comparative IC 50 values. (Bolden-Watson, C and Richelson, E., Life Sci, (52), 1993, 1023-1029), which is hereby incorporated by reference."}, "[14]": {"target": "dopamine D2 receptor (Homo sapiens, UniProt P14416)", "sequence (P14416 whole entry, species assumed)": "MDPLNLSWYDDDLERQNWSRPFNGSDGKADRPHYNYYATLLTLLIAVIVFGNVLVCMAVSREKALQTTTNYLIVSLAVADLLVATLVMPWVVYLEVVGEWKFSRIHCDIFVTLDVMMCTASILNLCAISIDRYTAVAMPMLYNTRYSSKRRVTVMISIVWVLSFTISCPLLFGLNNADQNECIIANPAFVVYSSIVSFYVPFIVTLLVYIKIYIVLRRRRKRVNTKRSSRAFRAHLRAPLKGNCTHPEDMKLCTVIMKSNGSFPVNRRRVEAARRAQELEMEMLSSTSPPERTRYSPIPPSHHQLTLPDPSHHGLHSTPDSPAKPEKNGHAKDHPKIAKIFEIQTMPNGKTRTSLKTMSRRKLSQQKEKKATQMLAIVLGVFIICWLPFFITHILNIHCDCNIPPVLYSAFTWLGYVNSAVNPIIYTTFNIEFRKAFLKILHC", "assay": "Activity at the dopamine D2 receptor"}, "[15]": {"conditions": "toxic levels similar to that found in the SSRI's"}, "[16]": {"test_system": "serotonin synthesis in the brain", "assay": "Serotonin synthesis in the brain"}}, "note": "Read-outs that look alike come from different tables or passages of the source."}
{"molecule": "CN(C)CCC=C1c2ccccc2CCc2ccccc21", "note": "[amitriptyline]", "values": [{"measurement": "effect on ECG interval", "setting": "[1]", "value": "prolong the ECG interval"}]}
{"molecule": "CNCC[C@@H](Oc1ccccc1C)c1ccccc1", "note": "[atomoxetine]", "values": [{"measurement": "mean reduction of CAARS scores", "setting": "[2]; first study, placebo 18.1%", "value": 28.3, "unit": "%"}, {"measurement": "mean reduction of CAARS scores", "setting": "[2]; second study, placebo 19.6%", "value": 30.1, "unit": "%"}, {"measurement": "difference between active and placebo in reduction of CAARS scores", "setting": "[3]", "value": "about 10%"}]}
{"molecule": "CNCCCN1c2ccccc2CCc2ccccc21", "note": "[desipramine]", "values": [{"measurement": "fatalities per million prescriptions", "setting": "[4]", "value": 200.9, "unit": "per million prescriptions"}, {"measurement": "patients with a significant response", "setting": "[5]", "value": "around 70%"}, {"measurement": "diastolic blood pressure, heart rate and ECG conductance", "setting": "[6]", "value": "asymptomatic and generally small increases"}, {"measurement": "effect on ECG interval", "setting": "[1]", "value": "prolong the ECG interval"}]}
{"molecule": "CN(C)CCCN1c2ccccc2CCc2ccccc21", "note": "[imipramine]", "values": [{"measurement": "time to begin to reduce hyperactivity", "setting": "[7]", "value": "3 to 10", "unit": "days"}, {"measurement": "effect on ECG interval", "setting": "[1]", "value": "prolong the ECG interval"}]}
{"molecule": "CN(CCCN1c2ccccc2CCc2ccccc21)CC(=O)c1ccc(Cl)cc1", "note": "[lofepramine]", "values": [{"measurement": "CAARS scores versus placebo", "setting": "[8]", "value": "significant benefit over placebo"}, {"measurement": "behaviour", "setting": "[9]; 70 mg three times daily, sustained for 4 months", "value": "major improvement"}, {"measurement": "behaviour", "setting": "[9]; 70 mg twice daily", "value": "No immediate improvement"}, {"measurement": "side-effects", "setting": "[9]; patient report", "value": "no side-effects"}, {"measurement": "general behaviour and concentration", "setting": "[9]; 70 mg three times daily, sustained for 3 months", "value": "continued improvement"}, {"measurement": "general behaviour and concentration", "setting": "[9]; 70 mg twice daily, after 1 week", "value": "significant improvement"}, {"measurement": "sedation", "setting": "[10]", "value": "does not induce sedation"}, {"measurement": "HPA activity", "setting": "[11]", "value": "induces upregulation of HPA activity"}, {"measurement": "fatalities per million prescriptions", "setting": "[4]", "value": 1.3, "unit": "per million prescriptions"}, {"measurement": "FibroFatigue Scale, CDR cognitive tests, HADS and CGI", "setting": "[12]", "value": "significant improvement on all scales"}, {"measurement": "NA:5HT ratio relative to that of desipramine", "setting": "[13]", "value": "about four"}, {"measurement": "NE:5-HT ratio compared with milnacipran", "setting": "[13]", "value": "higher than that of milnacipran"}, {"measurement": "activity at the D2 receptor", "setting": "[14]", "value": "potent activity"}, {"measurement": "effect on ECG interval", "setting": "[1]", "value": "does not"}, {"measurement": "cardiotoxicity", "setting": "[15]", "value": "very low cardiotoxicity"}, {"measurement": "serotonin synthesis in the brain", "setting": "[16]", "value": "up-regulate serotonin synthesis in the brain"}]}
{"molecule": "COc1ccc(C(CN(C)C)C2(O)CCCCC2)cc1", "note": "(stereo not drawn) [venlafaxine]", "values": [{"measurement": "fatalities per million prescriptions", "setting": "[4]", "value": 13.2, "unit": "per million prescriptions"}]}
